Data on two compounds can be found in US9738902B2, “Modified PYR/PYL receptors activated by ligands” (priority 2013, dated 2017).

Molecules are shown by their SMILES.

For assay [1], the system named is PYR1-OX. Briefly: qRT-PCR of ABA-regulated genes RD29B and RAB18. The class given is in vivo, Arabidopsis. As to conditions: 50 μM ABA, 8 hours. As to the method:
One of ABA's major effects is to regulate gene expression. We therefore examined the effects of ABA and mandipropamid on gene expression in wild type, PYR-OX, MDP1 and MPD2 transgenic plants. Seed of the wild type or transgenic lines were surface sterilized, stratified for 4 days at 4° C. and then grown for 10 days at room temperature under continuous illumination in a liquid culture consisting of 0.5×MS salts and 0.5% sucrose and grown with continuous shaking to provide aeration. After 10 days, the culture solutions were adjusted to contain 50 μM ABA, 2 μM mandipropamid, or a mock treatment. After 8 hours exposure to the test compounds RNA was isolated using RNAEasy™ Plant RNA isolation kit (Qiagen, USA) and treated with DNAse. The purified RNA was utilized in qRT-PCR reactions using primers for the ABA-regulated genes RD29B or RAB18. Biological triplicate and triple technical replicate measurements were conducted. To perform qRT-PCR analyses, cDNA was generated from 5 μg of total RNA using superscript reverse transcriptase III (Invitrogen, USA), in reaction mixture containing a oligo-dT20 (SEQ ID NO:110) and a ribosomal RNA primer. Real-time quantitative PCR analysis was performed by ΔCt method of relative quantification. PCR mixtures contained cDNA, Maxima® SYBR green/Fluorescein qPCR master mix (Fermentas, USA) and 330 nM of each gene-specific primer. RT-PCRs were conducted using a BioRad CFX96 Real-Time PCR System and the data were processed using the BioRad CFX Manager software (BioRad, USA). PCRs were performed under the following cycling conditions: 3 min at 95° C., followed by 40 cycles of 10 sec at 95° C., 10 sec at 55° C. and 30 sec at 72° C. in 96-well optical reaction plates (BioRad, USA). The specificity of amplicons was verified by melting curve (disassociation) analysis (60-95° C.) after 40 cycles. Input cDNA was normalized using an internal control gene, PEX4 (AT5G25760).
On the technique in general: Real-time PCR tracks product formation cycle by cycle.

Assay [2] has as its target T1, GST-HAB1 with 6×-His-PYR1^MANDI (Arabidopsis thaliana, UniProt O49686, F108A/F159L/K59R/S122G/V81I/Y58H).
T1 construct: made in house; host or cells: E. coli BL21[DE3]pLysS (receptor)
Briefly: PP2C enzyme inhibition assay (4-methylumbelliferyl-phosphate). The following applies: PYR1^MANDI with GST-HAB1, GST-ABI1, GST-ABI2. The format is biochemical. As to the method:
We next characterized the effects of recombinant PYR1^MANDI on PP2C activity using the fluorogenic substrate 4-methylumbelliferyl-phosphate. Recombinant receptor and PP2C proteins were prepared as described above and used to examine PP2C inactivation in response to mandipropamid or ABA. Enzyme inhibition assays were conducted using the following assay conditions: 100 nM 6×-His-PYR1^MANDI, 50 nM GST-PP2C, 100 mM Tris-OAc (pH 7.9), 100 mM NaCl, 1 mM MnCl2, 1% β-mercaptoethanol. […] The three ABA-regulated clade A PP2Cs, GST-HAB1, GST-ABI1 and GST-ABI2 were each tested under the same enzyme conditions in separate reactions. The assays were conducted at a variety of mandipropamid or ABA concentrations so that IC50 values could be determined. […] Thus, the PYR1^MANDI receptor is highly sensitive to activation by mandipropamid and interacts with multiple clade A PP2Cs in response to mandipropamid. This high level of sensitivity is consistent with the yeast two hybrid results described above in which a detectable interaction between PYR1^MANDI and HAB1 could be observed at concentrations as low as 2 nM (see Table 1). We note that the yeast two hybrid reporter systems requires only a small percentage of PYR1^MANDI receptors to bind HAB1 for an interaction signal and is therefore a potentially more sensitive indicator than in vitro assays. […] Thus these in vitro assays confirm that PYR1^MANDI is selectively activated by mandipropamid.

Assay [3] addresses T2, PYR1 K59R A89W (Arabidopsis thaliana, UniProt O49686, A89W/K59R).
T2 construct: expressed in transfected cells; host or cells: S. cerevisiae Y190 yeast two-hybrid reporter strain
Nature of the assay: Y2H Pocket Library Screen (HAB1, X-gal). The format is cell-based. As to the method: (§1) The set of 475 mutant plasmids were individually transformed into the Y190 yeast two hybrid reporter strain co-transformed with pACT-HAB1, as previously described (Park et al., 2009). The yeast strains generated were arrayed into 96-well plates yielding what we refer to as the “pocket library”. The pocket library strains were spotted onto agar plates containing selective synthetic dextrose (minus Leu & Trp) medium that was supplemented with a single test compound at 100 μM. The pocket library strains were separately tested for responsiveness to the following compounds: dichlobenil, benzothiadiazole, mandipropamid, fludioxonil, and benoxacor. After incubating test plates at 30° C. for two days, colonies were chloroform lysed and stained to reveal β-galactosidase expression levels, using previously described methods (Park et al., 2009). Mutants displaying responsiveness to the test compound, if present, were identified by virtue of X-gal staining and then subjected to subsequent optimization efforts. Using this approach we identified mutations that conferred detectable sensitivity to the compounds tested (see entries labeled “Pocket Library Screens” in Table 1).

The target in assay [4] is T3, PYR1 K59R S92W (Arabidopsis thaliana, UniProt O49686, K59R/S92W).
T3 construct: expressed in transfected cells; host or cells: S. cerevisiae Y190 yeast two-hybrid reporter strain
T3 sequence (Q9CAJ0 23-511): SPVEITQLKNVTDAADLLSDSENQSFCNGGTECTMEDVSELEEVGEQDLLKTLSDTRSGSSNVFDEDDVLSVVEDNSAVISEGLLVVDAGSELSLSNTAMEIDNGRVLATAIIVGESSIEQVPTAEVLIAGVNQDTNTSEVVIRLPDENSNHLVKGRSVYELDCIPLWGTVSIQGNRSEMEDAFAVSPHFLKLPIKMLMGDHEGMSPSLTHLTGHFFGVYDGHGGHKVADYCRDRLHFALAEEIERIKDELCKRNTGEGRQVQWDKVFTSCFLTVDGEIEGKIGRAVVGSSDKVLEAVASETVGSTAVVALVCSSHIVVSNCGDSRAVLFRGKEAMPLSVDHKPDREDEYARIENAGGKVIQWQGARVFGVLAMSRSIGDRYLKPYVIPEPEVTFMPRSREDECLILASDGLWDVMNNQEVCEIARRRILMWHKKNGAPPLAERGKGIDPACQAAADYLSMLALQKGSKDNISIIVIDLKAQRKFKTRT
T3 sequence (O49686 whole entry K59R/S92W): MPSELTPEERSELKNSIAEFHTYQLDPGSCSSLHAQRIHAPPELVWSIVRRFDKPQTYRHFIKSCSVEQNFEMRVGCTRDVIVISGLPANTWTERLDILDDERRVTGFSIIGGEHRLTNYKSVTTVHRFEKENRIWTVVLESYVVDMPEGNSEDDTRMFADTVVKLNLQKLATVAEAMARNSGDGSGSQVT
Nature of the assay: Y2H Pocket Library Screen (HAB1, X-gal). The format is cell-based. As to the method:
as §1

Assay [5] addresses T4, PYR1 K59R L87F (Arabidopsis thaliana, UniProt O49686, K59R/L87F).
T4 construct: expressed in transfected cells; host or cells: S. cerevisiae Y190 yeast two-hybrid reporter strain
Briefly: Y2H Pocket Library Screen (HAB1, X-gal). The class given is cell-based. As to the method:
as §1

Assay [6] addresses T5, PYR1 K59R M158V (Arabidopsis thaliana, UniProt O49686, K59R/M158V).
T5 construct: expressed in transfected cells; host or cells: S. cerevisiae Y190 two-hybrid reporter strain
Briefly: Y2H Pocket Library Screen (HAB1, X-gal). The class given is cell-based. As to the method:
as §1

Assay [7] addresses T6, PYR1 K59R A89I (Arabidopsis thaliana, UniProt O49686, A89I/K59R).
T6 construct: expressed in transfected cells; host or cells: S. cerevisiae Y190 yeast two-hybrid reporter strain
Briefly: Y2H Pocket Library Screen (HAB1, X-gal). The format is cell-based. As to the method: as §1

For assay [8], the target named is T7, PYR1 K59R M158C (Arabidopsis thaliana, UniProt O49686, K59R/M158C).
T7 construct: expressed in transfected cells; host or cells: S. cerevisiae Y190 two-hybrid reporter strain
T7 sequence (O49686 whole entry K59R/M158C): as the sequence (O49686 whole entry K59R/S92W) above, with W92S, M158C counted along it
T7 sequence (Q9CAJ0 23-511, further chain): as the sequence (Q9CAJ0 23-511) above
Briefly: Y2H Pocket Library Screen (HAB1, X-gal). The format is cell-based. As to the method: as §1

Assay [9] deals with T8, PYR1 K59R T162W (Arabidopsis thaliana, UniProt O49686, K59R/T162W).
T8 construct: expressed in transfected cells; host or cells: S. cerevisiae Y190
T8 sequence (O49686 whole entry K59R/T162W): as the sequence (O49686 whole entry K59R/S92W) above, with W92S, T162W counted along it
T8 sequence (Q9CAJ0 23-511, further chain): as the sequence (Q9CAJ0 23-511) above
Briefly: Y2H Pocket Library Screen (HAB1, X-gal). The format is cell-based. As to the method:
as §1

The target in assay [10] is T9, PYR1 K59R M158T (Arabidopsis thaliana, UniProt O49686, K59R/M158T).
T9 construct: expressed in transfected cells; host or cells: S. cerevisiae Y190 two-hybrid reporter strain
T9 sequence (Q9CAJ0 23-511): as above
T9 sequence (O49686 whole entry K59R/M158T): as the sequence (O49686 whole entry K59R/S92W) above, with W92S, M158T counted along it
Briefly: Y2H Pocket Library Screen (HAB1, X-gal). The class given is cell-based. As to the method: as §1

The target in assay [11] is T10, PYR1 K59R F159V (Arabidopsis thaliana, UniProt O49686, F159V/K59R).
T10 construct: expressed in transfected cells; host or cells: S. cerevisiae Y190
T10 sequence (O49686 whole entry K59R/F159V): as the sequence (O49686 whole entry K59R/S92W) above, with W92S, F159V counted along it
T10 sequence (Q9CAJ0 23-511, further chain): as the sequence (Q9CAJ0 23-511) above
Nature of the assay: Y2H Pocket Library Screen (HAB1, X-gal). The format is cell-based. As to the method:
as §1

Assay [12] has as its target T11, PYR1 K59R S92I (Arabidopsis thaliana, UniProt O49686, K59R/S92I).
T11 construct: expressed in transfected cells; host or cells: S. cerevisiae Y190 yeast two-hybrid reporter strain
Briefly: Y2H Pocket Library Screen (HAB1, X-gal). The format is cell-based. As to the method:
as §1

Assay [13] addresses T12, PYR1 K59R A89I S92I (Arabidopsis thaliana, UniProt O49686, A89I/K59R/S92I).
T12 construct: expressed in transfected cells; host or cells: S. cerevisiae Y190 two-hybrid reporter strain
Nature of the assay: Y2H Combinatorial Mutagenesis Screen I (HAB1, X-gal). The class given is cell-based. The source says: (§2) This screening approach yielded mutants at ligand contacting residues that alter sensitivity to specific ligands. We reasoned that receptor sensitivity could be improved by systematically constructing combinations of the best mutant variants identified in the first round of screening. To test this, we constructed mutant combinations using the strongest mutations identified for mandipropamid, benzothiadiazole, benoxacor or fludioxonil sensitivity. The mutations selected for combinatorial mutagenesis are listed in bold type in Table 1; The mutant combinations were constructed using the QuickChange Lightning Multi Site-Directed PCR Mutagenesis kit (Agilent, USA) using pBD-PYR1^K59R template DNA and mutagenic primers, essentially as previously described (Mosquna et al., 2011). The mutant combinations were sequence validated, introduced into the pACT-HAB1 Y190 reporter strain and then tested for responsiveness to a range of compound concentrations (100, 50, 25, 10, 1, 0.2, 0.1 or 0 μM each test compound). These efforts yielded double mutant receptor variants with improved sensitivity for the 4 compound/receptor pairs examined (see entries labeled “Combinatorial Mutagenesis Screen I” in Table 1).

The target of assay [14] is T13, PYR1 K59R A89I S92W (Arabidopsis thaliana, UniProt O49686, A89I/K59R/S92W).
T13 construct: expressed in transfected cells; host or cells: S. cerevisiae Y190 two-hybrid reporter strain
T13 sequence (Q9CAJ0 23-511): as above
T13 sequence (O49686 whole entry K59R/A89I/S92W): as the sequence (O49686 whole entry K59R/S92W) above, with A89I counted along it
The assay is described as above. The class given is cell-based.
Description: as §2

T1 sequence (Q9CAJ0 23-511): as the sequence (Q9CAJ0 23-511) above
T1 sequence (O49686 whole entry Y58H/K59R/V81I/F108A/S122G/F159L): as the sequence (O49686 whole entry K59R/S92W) above, with Y58H, V81I, W92S, F108A, S122G, F159L counted along it
T2 sequence (O49686 whole entry K59R/A89W): as the sequence (O49686 whole entry K59R/S92W) above, with A89W, W92S counted along it
T2 sequence (Q9CAJ0 23-511, further chain): as the sequence (Q9CAJ0 23-511) above
T6 sequence (O49686 whole entry K59R/A89I): as the sequence (O49686 whole entry K59R/S92W) above, with A89I, W92S counted along it
T6 sequence (Q9CAJ0 23-511, further chain): as the sequence (Q9CAJ0 23-511) above
T11 sequence (O49686 whole entry K59R/S92I): as the sequence (O49686 whole entry K59R/S92W) above, with W92I counted along it
T11 sequence (Q9CAJ0 23-511, further chain): as the sequence (Q9CAJ0 23-511) above
T12 sequence (O49686 whole entry K59R/A89I/S92I): as the sequence (O49686 whole entry K59R/S92W) above, with A89I, W92I counted along it
T12 sequence (Q9CAJ0 23-511, further chain): as the sequence (Q9CAJ0 23-511) above
T4 sequence (O49686 whole entry K59R/L87F): as the sequence (O49686 whole entry K59R/S92W) above, with L87F, W92S counted along it
T4 sequence (Q9CAJ0 23-511, further chain): as the sequence (Q9CAJ0 23-511) above
T5 sequence (O49686 whole entry K59R/M158V): as the sequence (O49686 whole entry K59R/S92W) above, with W92S, M158V counted along it
T5 sequence (Q9CAJ0 23-511, further chain): as the sequence (Q9CAJ0 23-511) above

Consider `CC1=CC(=O)CC(C)(C)[C@@]1(O)/C=C/C(C)=C\C(=O)O` [ABA, abscisic acid], for which the “levels of RAB18 and RD29 induced by ABA, compared with wild type” value in assay [1] is “higher”. The “activation of the receptors by ABA” value in [2] was “not appreciably activated”.

As for `CC1COc2ccccc2N1C(=O)C(Cl)Cl` (centres unmarked) [Benoxacor, benoxacor], the Threshold in assay [3] was 100 µM; in assay [4], 50 µM; in assay [5], 100 µM; in assay [6], 100 µM; in assay [7], 100 µM; in assay [8] it was 100 µM. Moreover, the Threshold in assay [9] was 50 µM; in [10] it was 100 µM; in [11], 100 µM; in assay [12], 50 µM; in [13] it was 50 µM; in assay [14] it was 50 µM.
